Values belong to the compound of their own block, whether it stands above or below them.
How the values were obtained:
Yeast #2 = experiment: Solvent compatibility with yeast corn mash fermentation, Yeast #2
Protocol: (§1) Dialkylsulfoxides and alkyl pyrrolidones, where the alkyl groups are independently C1 to C4, are particularly preferred. Dimethylsulfoxide (DMSO) and N-Methyl-2-Pyrrolidone (M-Pyrol or NMP) compatibility with yeast corn mash fermentations were evaluated with two yeasts (Yeast#1 and Yeast#2) commercially used in the fuel ethanol industry. Concentrations of 0 to 1200 ppm of either solvent were added at the beginning of dry-milled corn-mash fermentations along with either yeast.
(§2) Sterile saccharified 26% wt. %/v corn mash was prepared using substantially the same procedure described in Example 2. To each of 6 pre-sterilized Celstir™ fermentors (Wheaton Instruments, Millville, N.J.), 500 g sterile mash was aseptically added. The fermentors were temperature controlled to 32° C. using circulating water baths (Haake D8;G, Berlin, Germany) to pump water through the jackets of the Celstir fermentors. Magnetic stirrers (IKA-Lavortechnik, Staufen, Germany) were used to mix the fermentors at approximately 200 RPM. […] Then, to each fermentator was added 1) 1 ml of 0.2 μm filter-sterilized Urea stock solution (8 mM urea in fermentors); 2) 1 ml filter sterilized aqueous DMSO (Gaylord Chemical, CAS#67-68-5) or aqueous M-Pyrol (ISP, CAS#872-50-) solutions; and 3) 1.027 g Yeast#1 or Yeast#2 commercial active dry yeasts in 18 ml sterile water.
Samples (22 ml) were taken at 0, 6, 12, 24, 36, and 48 h and placed on ice to prevent growth. An 11 ml aliquot of each sample was serially diluted in 0.1% w/v sterile peptone water, and microbiologically plated onto MRS agar plates in duplicate. All plates were incubated for 48 h at 30° C. in an anaerobic CO2 incubation chamber, and manually enumerated for viable Lactobacilli. […] Lactic acid, glycerol, ethanol, acetic acid, and glucose concentrations were determined by HPLC analysis. […] The components were detected by a differential refractometer (Model 4210, Waters Chromatographic Division, Milford, Mass.) and the subsequent data processed by the supplied Waters Millenium32 software. […]

Yeast #1 = experiment: Solvent compatibility with yeast corn mash fermentation, Yeast #1; details: Yeast #1, corn mash
Protocol: as §1, §2
Samples (22 ml) were taken at 0, 6, 12, 24, 36, and 48 h and placed on ice to prevent growth. An 11 ml aliquot of each sample was serially diluted in 0.1% w/v sterile peptone water, and microbiologically plated onto MRS agar plates in duplicate. All plates were incubated for 48 h at 30° C. in an anaerobic CO2 incubation chamber, and manually enumerated for viable Lactobacilli. The remaining 11 ml aliquot of each sample was centrifuged (10K RPM, 4° C., 20 minutes) in a Sorvall RC-5C centrifuge. The liquid supernatant was then passed through a 0.2 μm membrane filter to remove any particulates and frozen for future analysis. Lactic acid, glycerol, ethanol, acetic acid, and glucose concentrations were determined by HPLC analysis. The samples were thawed and diluted to the required extent with Milli-Q water. Aliquots of the diluted samples (100 μl) were each mixed with an equal volume of 2% w/v boric acid (internal standard), and injected into a Biorad HPX-87H Aminex™ column equilibrated at 40° C. The eluent was 5 mM sulfuric acid flowing at a rate of 0.7 ml/min. The components were detected by a differential refractometer (Model 4210, Waters Chromatographic Division, Milford, Mass.) and the subsequent data processed by the supplied Waters Millenium32 software. All fermentations were performed in duplicate.

humans = details: cited from earlier work

- Ethanol production (Yeast #2; Yeast #2, corn mash, 1000 ppm solvent, 48 hours (control 10%)): 9.1%
- Ethanol production (Yeast #1; 1000 ppm solvent (control 8.1%)): 7.8%
Structure (SMILES): CN1CCCC1=O [NMP, N-Methyl-2-Pyrrolidone]
- Ethanol concentration trend (Yeast #2; Yeast #2, solvent concentrations >400 ppm): consistent trend towards lower concentrations of ethanol
- Yeast viability (Yeast #1; solvent concentrations above 400 ppm): slight decline in yeast viability

Structure (SMILES): CCCCOC(=O)C(C)O (stereo not drawn) [n-butyl lactate]
- Toxic concentration in air (humans; humans, in air): about 4 ppm
- Toxicity classification (humans; intraperitoneal route): classified as a poison by intraperitoneal route

- Ethanol production (inhibition) (Yeast #1; 0 to 1200 ppm solvent): did not inhibit ethanol production
Structure (SMILES): C[S+](C)[O-] [DMSO, Dimethylsulfoxide]
- Yeast performance (viability, glycerol, ethanol) (Yeast #2; Yeast #2, corn mash, 0 to 1200 ppm solvent): no adverse effect on yeast performance
- Yeast viability and stress (glycerol) (Yeast #1; 1000 ppm solvent, 48 hours of exposure): does not appear to affect the viability of Yeast #1 or stress Yeast #1

Reference: patent publication US20080003215A1, “Use of pre-dissolved pristinamycin-type and polyether ionophore type antimicrobial agents in the production of ethanol” (priority 2006, published 2008)
